Data reported in patent publication US20250324971A1, “HERBICIDAL DERIVATIVES” (SYNGENTA CROP PROTECTION AG, priority 2022, published 2025).

Tests used:
Assay type in all cases: in vivo
[1] = system: Echinochloa crus-galli (ECHCG); assay: Pre-Emergence Test (herbicidal, glasshouse pots); conditions: evaluated after 13 days, five-point scale
[2] = system: Amaranthus retoflexus (AMARE); assay: Post-Emergence Test (herbicidal, glasshouse pots); conditions: evaluated after 13 days
Summary of the method: (§1)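 Pots sown and sprayed with compound in acetone/water 50:50 with 0.5% Tween 20 at rates in g/ha, grown in glasshouse (24/16 °C, 14 h light, 65% humidity). Damage scored 13 days later on a five-point scale (5 = 81-100%, 1 = 0-20%).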

Setaria faberi (SETFA) [3] = assay: Post-Emergence Test (herbicidal, glasshouse pots); conditions: evaluated after 13 days
Summary of the method: as §1

[4] = system: Amaranthus palmeri (AMAPA); assay: Post-Emergence Test (herbicidal, glasshouse pots); conditions: evaluated after 13 days
Summary of the method: as §1

[5] = system: Echinochloa crus-galli (ECHCG); assay: Post-Emergence Test (herbicidal, glasshouse pots); conditions: evaluated after 13 days
Summary of the method: as §1

[6] = system: Ipomoea hederacea (IPOHE); assay: Post-Emergence Test (herbicidal, glasshouse pots); conditions: evaluated after 13 days
Summary of the method: as §1

Zea mays (ZEAMX) [7] = assay: Post-Emergence Test (herbicidal, glasshouse pots); conditions: evaluated after 13 days
Summary of the method: as §1

Setaria faberi (SETFA) [8] = assay: Pre-Emergence Test (herbicidal, glasshouse pots); conditions: evaluated after 13 days, five-point scale
[9] = system: Ipomoea hederacea (IPOHE); assay: Pre-Emergence Test (herbicidal, glasshouse pots); conditions: evaluated after 13 days, five-point scale
Zea mays (ZEAMX) [10] = assay: Pre-Emergence Test (herbicidal, glasshouse pots); conditions: evaluated after 13 days, five-point scale
[11] = system: Amaranthus palmeri (AMAPA); assay: Pre-Emergence Test (herbicidal, glasshouse pots); conditions: evaluated after 13 days, five-point scale
[12] = system: Amaranthus retoflexus (AMARE); assay: Pre-Emergence Test (herbicidal, glasshouse pots); conditions: evaluated after 13 days, five-point scale

Structure (SMILES) | percentage damage caused to the plant, ECHCG ([1]; rate 250 g/ha) | Post-Emergence Test AMARE percentage damage (five-point scale) ([2]; rate 250 g/ha) | Post-Emergence Test SETFA percentage damage (five-point scale) (Setaria faberi (SETFA) [3]; rate 250 g/ha) | Post-Emergence Test AMAPA percentage damage (five-point scale) ([4]; rate 250 g/ha) | Post-Emergence Test ECHCG percentage damage (five-point scale) ([5]; rate 250 g/ha) | Post-Emergence Test IPHOE percentage damage (five-point scale) ([6]; rate 250 g/ha) | Post-Emergence Test ZEAMX percentage damage (five-point scale) (Zea mays (ZEAMX) [7]; rate 250 g/ha) | percentage damage caused to the plant, SETFA (Setaria faberi (SETFA) [8]; rate 250 g/ha) | percentage damage caused to the plant, IPHOE ([9]; rate 250 g/ha) | percentage damage caused to the plant, ZEAMX (Zea mays (ZEAMX) [10]; rate 250 g/ha) | percentage damage caused to the plant, AMAPA ([11]; rate 250 g/ha) | percentage damage caused to the plant, AMARE ([12]; rate 250 g/ha) | percentage damage caused to the plant, ECHCG ([1]; rate 1000 g/ha) | Post-Emergence Test AMARE percentage damage (five-point scale) ([2]; rate 1000 g/ha) | Post-Emergence Test SETFA percentage damage (five-point scale) (Setaria faberi (SETFA) [3]; rate 1000 g/ha) | Post-Emergence Test AMAPA percentage damage (five-point scale) ([4]; rate 1000 g/ha) | Post-Emergence Test ECHCG percentage damage (five-point scale) ([5]; rate 1000 g/ha) | Post-Emergence Test IPHOE percentage damage (five-point scale) ([6]; rate 1000 g/ha) | Post-Emergence Test ZEAMX percentage damage (five-point scale) (Zea mays (ZEAMX) [7]; rate 1000 g/ha) | percentage damage caused to the plant, SETFA (Setaria faberi (SETFA) [8]; rate 1000 g/ha) | further results
C#CC(C)Oc1cc(=O)c(C(=O)O)c(-c2ccc(Cl)c(Cl)c2)n1CC (stereo not drawn) [Compound 49, 2-(3,4-dichlorophenyl)-1-ethyl-6-(1-methylprop-2-ynoxy)-4-oxo-pyridine-3-carboxylic acid] | 1 (1=0-20%) | 1 (1=0-20%) | 0 | 4 (4=61-80%) | 0 | 1 (1=0-20%) | 1 (1=0-20%) | 1 (1=0-20%) | 1 (1=0-20%) | 0 | 0 | 1 (1=0-20%) |  |  |  |  |  |  |  |  | 
CCn1cc(Oc2cc(=O)c(C(=O)O)c(-c3ccc(Cl)c(Cl)c3)n2CC)cn1 [Compound 59, 2-(3,4-dichlorophenyl)-1-ethyl-6-(1-ethylpyrazol-4-yl)oxy-4-oxo-pyridine-3-carboxylic acid] | 4 (4=61-80%) | 4 (4=61-80%) | 3 (3=41-60%) | 3 (3=41-60%) | 3 (3=41-60%) | 4 (4=61-80%) | 4 (4=61-80%) | 5 (5=81-100%) | 4 (4=61-80%) | 3 (3=41-60%) | 1 (1=0-20%) | 2 (2=21-40%) |  |  |  |  |  |  |  |  | 
CCn1c(Oc2cccc(Cl)c2)cc(=O)c(C(=O)O)c1-c1ccc(Cl)c(Cl)c1 [Compound 2, 6-(3-chlorophenoxy)-2-(3,4-dichlorophenyl)-1-ethyl-4-oxo-pyridine-3-carboxylic acid] |  |  |  |  |  |  |  |  |  |  |  |  | 4 (4=61-80%) | 4 (4=61-80%) | 4 (4=61-80%) | 4 (4=61-80%) | 4 (4=61-80%) | 3 (3=41-60%) | 3 (3=41-60%) | 5 (5=81-100%) | percentage damage caused to the plant, IPHOE ([9]; rate 1000 g/ha): 4 (4=61-80%); percentage damage caused to the plant, ZEAMX (Zea mays (ZEAMX) [10]; rate 1000 g/ha): 2 (2=21-40%); percentage damage caused to the plant, AMAPA ([11]; rate 1000 g/ha): 1 (1=0-20%); percentage damage caused to the plant, AMARE ([12]; rate 1000 g/ha): 2 (2=21-40%)
CCn1c(Oc2ccc(S(C)(=O)=O)cc2)cc(=O)c(C(=O)O)c1-c1ccc(Cl)c(Cl)c1 [Compound 40, 2-(3,4-dichlorophenyl)-1-ethyl-6-(4-methylsulfonyl-phenoxy)-4-oxo-pyridine-3-carboxylic acid] | 0 | 2 (2=21-40%) | 2 (2=21-40%) | 2 (2=21-40%) | 1 (1=0-20%) | 4 (4=61-80%) | 1 (1=0-20%) | 2 (2=21-40%) | 3 (3=41-60%) | 0 | 1 (1=0-20%) | 1 (1=0-20%) |  |  |  |  |  |  |  |  | 
CCn1c(Oc2ccc(OC)c(OC)c2)cc(=O)c(C(=O)O)c1-c1ccc(Cl)c(Cl)c1 [Compound 21, 2-(3,4-dichlorophenyl)-6-(3,4-dimethoxyphenoxy)-1-ethyl-4-oxo-pyridine-3-carboxylic acid] |  |  |  |  |  |  |  |  |  |  |  |  | 2 (2=21-40%) | 4 (4=61-80%) | 5 (5=81-100%) | 3 (3=41-60%) | 1 (1=0-20%) | 3 (3=41-60%) | 1 (1=0-20%) | 4 (4=61-80%) | percentage damage caused to the plant, IPHOE ([9]; rate 1000 g/ha): 3 (3=41-60%); percentage damage caused to the plant, ZEAMX (Zea mays (ZEAMX) [10]; rate 1000 g/ha): 1 (1=0-20%); percentage damage caused to the plant, AMAPA ([11]; rate 1000 g/ha): 1 (1=0-20%); percentage damage caused to the plant, AMARE ([12]; rate 1000 g/ha): 1 (1=0-20%)
CCn1c(Oc2ccc(Cl)cn2)cc(=O)c(C(=O)O)c1-c1ccc(Cl)c(Cl)c1 [Compound 38, 6-[(5-chloro-2-pyridyl)oxy]-2-(3,4-dichlorophenyl)-1-ethyl-4-oxo-pyridine-3-carboxylic acid] | 5 (5=81-100%) | 4 (4=61-80%) | 4 (4=61-80%) | 4 (4=61-80%) | 3 (3=41-60%) | 4 (4=61-80%) | 4 (4=61-80%) | 5 (5=81-100%) | 4 (4=61-80%) | 4 (4=61-80%) | 2 (2=21-40%) | 3 (3=41-60%) |  |  |  |  |  |  |  |  | 
CCn1c(Oc2ccc(F)cc2)cc(=O)c(C(=O)O)c1-c1ccc(Cl)c(Cl)c1 [Compound 4, 2-(3,4-dichlorophenyl)-1-ethyl-6-(4-fluorophenoxy)-4-oxo-pyridine-3-carboxylic acid] |  |  |  |  |  |  |  |  |  |  |  |  | 5 (5=81-100%) | 4 (4=61-80%) | 4 (4=61-80%) | 4 (4=61-80%) | 4 (4=61-80%) | 3 (3=41-60%) | 3 (3=41-60%) | 5 (5=81-100%) | percentage damage caused to the plant, IPHOE ([9]; rate 1000 g/ha): 4 (4=61-80%); percentage damage caused to the plant, ZEAMX (Zea mays (ZEAMX) [10]; rate 1000 g/ha): 3 (3=41-60%); percentage damage caused to the plant, AMAPA ([11]; rate 1000 g/ha): 3 (3=41-60%); percentage damage caused to the plant, AMARE ([12]; rate 1000 g/ha): 3 (3=41-60%)
